Measured values reported in PMC10086185, “Synthesis, radiolabeling, and evaluation of a (4-quinolinoyl)glycyl-2-cyanopyrrolidine analogue for fibroblast activation protein (FAP) PET imaging” (Frontiers in Bioengineering and Biotechnology, 2023).

Experiments:
U87MG xenograft tumors = experiment: Micro-PET/CT imaging, U87MG xenograft tumors; type: in vivo, BALB/c nude mice; conditions: U87MG xenografted tumors, within 90 min
Procedure: BALB/c nude mice used in this study were obtained from the Animal Center of Sichuan University. Tumor-bearing mouse models were established by the subcutaneous injection of 100 µL of PBS suspension containing approximately 1*10^6 tumor cells to the body side of the subjects. The tumor volume was monitored every day, and the tumor-bearing mice were ready for imaging once the tumor volume reached 0.5 mm^3 (tumor volume can be calculated by this equation: Volume = 0.5 * long tail * short tail *short tail). Micro-PET/CT imaging studies were performed on the IRIS Micro-PET/CT system (Inviscan SAS, France). Tumor-bearing mice were injected with approximately 11.2–14.8 MBq of [^18F]3 (200 µL) via the tail vein under anaesthetization by isoflurane. Static PET images were obtained at designated time points and were reconstructed with a 3D-OSEM algorithm using a Monte Carlo-based accurate detector model. Then, 170 sec-CT acquisition was conducted with 50 kV, 1 mA X-ray output for attenuation correction and anatomical orientation. […]
BALB/c nude mice used in this study were obtained from the Animal Center of Sichuan university. […] The tumor volume was monitored every day and the tumor-bearing mice were ready for imaging once the tumor volume reach 0.5 mm^3 (tumor volume can be calculated by this equation: Volume = 0.5 * long tail * short tail *short tail). […]

[1] = test system: A549-FAPI cells (human FAP-expressing A549); experiment: Cellular uptake of [^18F]3 in A549-FAPI cells; type: cell-based
Procedure: (§1) Briefly, all cells were divided into the following two groups: A: blocking group and B: vehicle group. All cells were cultured, grouped, and plated (approximately 2*10^6 cells per well) before use. Cells were treated with [^18F]3 (74 KBq) and incubated at 37°C under a 5% CO2 atmosphere. […] Incubated at 37°C for 1 h, the medium from each well was removed, and the cells were washed twice with 1 mL of PBS. The medium and the PBS from each well were combined and counted in a Gamma counter (PerkinElmer Wizard 2470) for radioactivity counts. The cells were then handled with 1 mL of 1 M NaOH, and the lysates were also counted in the Wizard 2470 gamma counter. The uptake ratios for each group were then calculated with this equation: %Dose = […](medium counts + PBS counts + cell lysate counts).

U87MG cells = experiment: Cellular uptake of [^18F]3 in U87MG cells; type: cell-based; conditions: U87 cells
Procedure: as §1

[2] = test system: A549-FAPI xenograft tumors; experiment: Micro-PET/CT imaging, A549-FAPI xenograft tumors; type: in vivo, BALB/c nude mice
Procedure: BALB/c nude mice used in this study were obtained from the Animal Center of Sichuan University. Tumor-bearing mouse models were established by the subcutaneous injection of 100 µL of PBS suspension containing approximately 1*10^6 tumor cells to the body side of the subjects. The tumor volume was monitored every day, and the tumor-bearing mice were ready for imaging once the tumor volume reached 0.5 mm^3 (tumor volume can be calculated by this equation: Volume = 0.5 * long tail * short tail *short tail). Micro-PET/CT imaging studies were performed on the IRIS Micro-PET/CT system (Inviscan SAS, France). Tumor-bearing mice were injected with approximately 11.2–14.8 MBq of [^18F]3 (200 µL) via the tail vein under anaesthetization by isoflurane. Static PET images were obtained at designated time points and were reconstructed with a 3D-OSEM algorithm using a Monte Carlo-based accurate detector model. Then, 170 sec-CT acquisition was conducted with 50 kV, 1 mA X-ray output for attenuation correction and anatomical orientation. ROIs (regions of interest) were drawn on the lung, kidney, liver, and tumor by OsiriX software. SUV (standardized uptake value) of the ROIs was directly obtained from OsiriX for each subject according to this formula: SUV = Voxal value (Bq/mL) * Body weight (kg)/(Decay corrected Dose (Bq) * 1,000 (g/kg)).
BALB/c nude mice used in this study were obtained from the Animal Center of Sichuan university. Tumor-bearing mice model were established by the subcutaneous injection of 100 µL of PBS suspension containing approximately 1*10^6 tumor cells to the body side of the subjects. The tumor volume was monitored every day and the tumor-bearing mice were ready for imaging once the tumor volume reach 0.5 mm^3 (tumor volume can be calculated by this equation: Volume = 0.5 * long tail * short tail *short tail). Micro-PET/CT imaging studies were performed on the IRIS Micro-PET/CT system (Inviscan SAS, France). Tumor-bearing mice were injected with approximately 11.2-14.8 MBq of [^18F]3 (200 µL) via tail vein under anaesthetization by isoflurane. Static PET images were obtained at designated time points and were reconstructed with a 3D-OSEM algorithm using a Monte-Carlo based accurate detector model. A 170 sec-CT acquisition was conducted with 50 kV, 1 mA X-ray output for attenuation correction and anatomical orientation. ROIs (regions of interest) were drawn on lung, kidney, liver and tumor by Osirix software. SUV (standardized uptake value) of the ROIs was directly obtained from Osirix for each subject according to this formula: SUV = Voxal value (Bq/mL) * Body weight (kg)/(Decay corrected Dose (Bq) * 1000 (g/kg)).

[3] = 1 h, pre-treatment with compound 3, 10 µM
[4] = A549-FAPI tumors, pre-injection of compound 3, 2 mg/kg

In the case of `N#C[C@@H]1CC(F)(F)CN1C(=O)CNC(=O)c1ccnc2ccc([18F])cc12` [[^18F]3], the “Tumor SUV” value (U87MG xenograft tumors) is reported as “greater than 0.22”, the “Cellular uptake ratio, blocking group” value [1, 3] is reported as 0.56% ± 0.03% and the Cellular uptake ratio ([1]; 1 h incubation, vehicle group) is reported as 1.07% ± 0.01%. The “Cellular uptake ratio, blocking group” value (U87MG cells; [3]) was 1.19% ± 0.02%, the Cellular uptake ratio (U87MG cells; 1 h incubation, vehicle group) was 1.50% ± 0.13% and the “Tumor-to-muscle (T/M) ratio” value ([2]; A549-FAPI tumors, 90 min p.i.) was 4.34. For the same compound, the “Tumor SUV, blocking group” value [2, 4] was “lower than 0.2”, the “Tumor-to-muscle (T/M) ratio, blocking group” value [2, 4] was “less than 2.0” and the “Tumor SUV” value ([2]; A549-FAPI xenografted tumors, within 90 min) was “greater than 0.4”.
